Assay results: patent publication US20050245399A1, “Pyrazole derivatives as herbicidal compositions containing them” (ISHIHARA SANGYO KAISHA, LTD., priority 2004, published 2005)

What was measured:
Type in all cases: in vivo
[1] = tested on: velvetleaf (Abutilon theophrasti): ABUTH; test: Test Example 1 pre-emergence herbicidal activity, ABUTH; conditions: visually observed 20th to 23rd day after application
Method in brief: (§1)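 Seeds go into pots of upland field soil; one day on, the diluted formulation (500 L/ha water) is sprayed pre-emergence. Effects are scored visually 20 to 23 days post-application as 0–100% growth control.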

[2] = tested on: wheat (Triticum aestivum L.), TRZAX; test: Test Example 2 post-emergence (foliage treatment) herbicidal activity, TRZAX; conditions: 63 g a.i./ha
Method in brief: (§2)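 Foliar spray of formulated compound (500 L/ha dilution water, 0.1% v/v spreader) onto young potted plants at defined leaf stages. Scored 0-100% by visual inspection 20-23 d post-spray.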

[3] = tested on: green foxtail (Setaria viridis L.), SETVI; test: Test Example 2 post-emergence (foliage treatment) herbicidal activity, SETVI; conditions: 63 g a.i./ha
Method in brief: as §2

[4] = tested on: redroot pigweed (Amaranthus retroflexus L.), AMARE; test: Test Example 2 post-emergence (foliage treatment) herbicidal activity, AMARE; conditions: 63 g a.i./ha
Method in brief: (§3)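 Sow in upland soil; grow to leaf stage (barnyardgrass 1.1-2.1, crabgrass 1.0-2.0, pigweed 0.1-1.5, rice 1.0-2); spray foliage at a fixed active ingredient rate in 500 L/ha water with 0.1% (v/v) spreader; rate growth control visually at 20-23 days on a 0-100% scale.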

[5] = tested on: soybean (Glycine max Merr.): GLXMA; test: Test Example 1 pre-emergence herbicidal activity, GLXMA; conditions: visually observed 20th to 23rd day after application
Method in brief: as §1

[6] = tested on: rice (Oryza sativa L.): ORYSA; test: Test Example 1 pre-emergence herbicidal activity, ORYSA; conditions: visually observed 20th to 23rd day after application
Method in brief: as §1

[7] = tested on: crabgrass (Digitaria sanguinalis L.): DIGSA; test: Test Example 1 pre-emergence herbicidal activity, DIGSA; conditions: visually observed 20th to 23rd day after application
Method in brief: as §1

[8] = tested on: crabgrass (Digitaria sanguinalis L.), DIGSA; test: Test Example 2 post-emergence (foliage treatment) herbicidal activity, DIGSA; conditions: 63 g a.i./ha
Method in brief: as §3

[9] = tested on: corn (Zea mays L.): ZEAMX; test: Test Example 1 pre-emergence herbicidal activity, ZEAMX; conditions: visually observed 20th to 23rd day after application
Method in brief: as §1

[10] = tested on: prickly sida (Sida spinosa L.): SEDSP; test: Test Example 1 pre-emergence herbicidal activity, SIDSP; conditions: visually observed 20th to 23rd day after application
Method in brief: as §1

[11] = tested on: soybean (Glycine max Merr.), GLXMA; test: Test Example 2 post-emergence (foliage treatment) herbicidal activity, GLXMA; conditions: 63 g a.i./ha
Method in brief: as §2

[12] = tested on: redroot pigweed (Amaranthus retroflexus L.): AMARE; test: Test Example 1 pre-emergence herbicidal activity, AMARE; conditions: visually observed 20th to 23rd day after application
Method in brief: as §1

[13] = tested on: prickly sida (Sida spinosa L.), SIDSP; test: Test Example 2 post-emergence (foliage treatment) herbicidal activity, SIDSP; conditions: 63 g a.i./ha
Method in brief: as §2

[14] = tested on: barnyardgrass (Echinochloa crus-galli L.): ECHCG; test: Test Example 1 pre-emergence herbicidal activity, ECHCG; conditions: visually observed 20th to 23rd day after application
Method in brief: as §1

[15] = tested on: wheat (Triticum aestivum L.): TRZAX; test: Test Example 1 pre-emergence herbicidal activity, TRZAX; conditions: visually observed 20th to 23rd day after application
Method in brief: as §1

[16] = tested on: rice (Oryza sativa L.), ORYSA; test: Test Example 2 post-emergence (foliage treatment) herbicidal activity, ORYSA; conditions: 63 g a.i./ha
Method in brief: as §3

[17] = tested on: green foxtail (Setaria viridis L.): SETVI; test: Test Example 1 pre-emergence herbicidal activity, SETVI; conditions: visually observed 20th to 23rd day after application
Method in brief: as §1

[18] = tested on: velvetleaf (Abutilon theophrasti), ABUTH; test: Test Example 2 post-emergence (foliage treatment) herbicidal activity, ABUTH; conditions: 63 g a.i./ha
Method in brief: as §2

[19] = tested on: barnyardgrass (Echinochloa crus-galli L.), ECHCG; test: Test Example 2 post-emergence (foliage treatment) herbicidal activity, ECHCG; conditions: 63 g a.i./ha
Method in brief: as §3

[20] = tested on: corn (Zea mays L.), ZEAMX; test: Test Example 2 post-emergence (foliage treatment) herbicidal activity, ZEAMX; conditions: 63 g a.i./ha
Method in brief: as §2

[21] = tested on: barnyardgrass (Echinochiloa oryzicola: ECHOR); test: Test Example 3 water application herbicidal activity (paddy), ECHOR; conditions: 63 g a.i./ha, water application under submerged condition at 0.5 leaf stage, visually observed 14th day after application; 0 = untreated control, 100 = complete kill
From the text: (§4) Paddy field soil was put into a 1/1,000,000 ha pot and seeds of barnyardgrass (Echinochiloa oryzicola: ECHOR) and japanese bulrush (Scirpus juncoides: SCPJO) were sown and slightly covered with soil. Then the pot was left to stand still in a greenhouse in a state where the depth of flooding water was from 0.5 to 1 cm, and one day later, tubers of japanese ribbon wapato (Sagittaria pygmaea: SA GPY) were planted. Thereafter, the depth of flooding water was maintained at a level of from 3 to 4 cm, and when barnyardgrass and japanese bulrush reached a 0.5 leaf stage, an aqueous diluted solution of a wettable powder or emulsifiable concentrate having the compound of the present invention formulated in accordance with a usual formulation method, was uniformly applied under submerged condition by a pipette so that the dose of the active ingredient would be at a predetermined level. On the other hand, paddy filed soil was put into a 1/1,000,000 ha pot and puddled and leveled, and the depth of flooding water was from 3 to 4 cm. One day later, rice (Oryza sativa L.: ORYSA) of 2 leaf stage was transplanted in a depth of 3 cm. On the 4th day after the transplantation, the compound of the present invention was applied in the same manner as described above. On the 14th day after the application of the herbicide, the growth of barnyardgrass, japanese burlush and japanese ribbon wapato was visually observed and on the 21st day after the application of the herbicide, the growth of rice was visually observed, and the herbicidal effects were evaluated by growth controlling degrees (%) ranging from 0 (equivalent to the untreated control) to 100 (complete kill), whereby the results shown in Table 6, were obtained. Compound Nos. in Table 6 correspond to Compound Nos. in Table 1 and 2 given hereinbefore.

[22] = tested on: japanese bulrush (Scirpus juncoides: SCPJO); test: Test Example 3 water application herbicidal activity (paddy), SCPJO; conditions: 63 g a.i./ha, water application under submerged condition at 0.5 leaf stage, visually observed 14th day after application; 0 = untreated control, 100 = complete kill
From the text: as §4

[23] = tested on: japanese ribbon wapato (Sagittaria pygmaea: SA GPY); test: Test Example 3 water application herbicidal activity (paddy), SAGPY; conditions: 63 g a.i./ha, water application under submerged condition, tubers planted, visually observed 14th day after application; 0 = untreated control, 100 = complete kill
From the text: as §4

Structure (SMILES)	growth controlling degree, TRZAX [2]	growth controlling degree, SETVI [3]	growth controlling degree, AMARE [4]	growth controlling degree, DIGSP [8]	growth controlling degree, GLXMA [11]	growth controlling degree, SIDSP [13]	growth controlling degree, ORYSA [16]	growth controlling degree, ABUTH [18]	growth controlling degree, ECHCO [19]	growth controlling degree, ZEAMX [20]	Pre-emergence Herbicidal Activity ABUTH (growth controlling degree) ([1]; Rate 63 g a.i./ha)	Pre-emergence Herbicidal Activity GLXMA (growth controlling degree) ([5]; Rate 63 g a.i./ha)	Pre-emergence Herbicidal Activity ORYSA (growth controlling degree) ([6]; Rate 63 g a.i./ha)	Pre-emergence Herbicidal Activity DIGSP (growth controlling degree) ([7]; Rate 63 g a.i./ha)	Pre-emergence Herbicidal Activity ZEAMX (growth controlling degree) ([9]; Rate 63 g a.i./ha)	Pre-emergence Herbicidal Activity SIDSP (growth controlling degree) ([10]; Rate 63 g a.i./ha)	Pre-emergence Herbicidal Activity AMARE (growth controlling degree) ([12]; Rate 63 g a.i./ha)	Pre-emergence Herbicidal Activity ECHCG (growth controlling degree) ([14]; Rate 63 g a.i./ha)	Pre-emergence Herbicidal Activity TRZAX (growth controlling degree) ([15]; Rate 63 g a.i./ha)	Pre-emergence Herbicidal Activity SETVI (growth controlling degree) ([17]; Rate 63 g a.i./ha)	other results
CCOC(=O)C(C)N(C=O)c1c(OC)c(Cl)cc(F)c1-c1nn(C)c(OC(F)F)c1Cl (stereo not drawn) [Compound 1-42]	20%	50%	100%	30%	10%	70%	20%	95%	30%	0%											Pre-emergence Herbicidal Activity ABUTH (growth controlling degree) ([1]; Rate 125 g a.i./ha): 0%; Pre-emergence Herbicidal Activity GLXMA (growth controlling degree) ([5]; Rate 125 g a.i./ha): 0%; Pre-emergence Herbicidal Activity ORYSA (growth controlling degree) ([6]; Rate 125 g a.i./ha): 0%; Pre-emergence Herbicidal Activity DIGSP (growth controlling degree) ([7]; Rate 125 g a.i./ha): 0%; Pre-emergence Herbicidal Activity ZEAMX (growth controlling degree) ([9]; Rate 125 g a.i./ha): 0%; Pre-emergence Herbicidal Activity SIDSP (growth controlling degree) ([10]; Rate 125 g a.i./ha): 0%; Pre-emergence Herbicidal Activity AMARE (growth controlling degree) ([12]; Rate 125 g a.i./ha): 0%; Pre-emergence Herbicidal Activity ECHCG (growth controlling degree) ([14]; Rate 125 g a.i./ha): 0%; Pre-emergence Herbicidal Activity TRZAX (growth controlling degree) ([15]; Rate 125 g a.i./ha): 0%; Pre-emergence Herbicidal Activity SETVI (growth controlling degree) ([17]; Rate 125 g a.i./ha): 0%
COc1c(Cl)cc(F)c(-c2nn(C)c(OC(F)F)c2Cl)c1NC(=O)C=Cc1cccc(C)c1 [Compound 1-254]	30%	95%	100%	60%	70%	100%	90%	100%	80%	30%	50%	0%	20%	60%	0%	60%	100%	60%	0%	50%	
COc1c(Cl)cc(F)c(-c2nn(C)c(OC(F)F)c2Cl)c1NC(=O)OCc1ccccc1 [Compound 1-71]	60%				80%	100%	80%	100%	100%	70%	100%	10%	60%	100%	30%	100%	100%	98%	30%	100%	growth controlling degrees (%) ECHOR [21]: 100%; growth controlling degrees (%) SCPJO [22]: 70%; growth controlling degrees (%) SAGPY [23]: 100%
